Measurements published in patent publication EP0943606A1, “BENZENESULFONAMIDE DERIVATIVES AND DRUGS CONTAINING THE SAME” (HOKURIKU SEIYAKU CO., LTD., priority 1996, dated 1998).

Experiments:
[1] = tested on: bronchoconstriction induced by U-46619; experiment: Inhibitory effect on bronchoconstriction induced by U-46619 (Konzett-Roessler); format: in vivo, Male Hartley guinea-pigs; conditions: Cavia porcellus; 0.3 mg/kg orally, 2 hours before U-46619 (4 µg/kg, cervical vein), anesthetized guinea-pigs, compared to control group; read-out: Inhibition rate (%)
Protocol: Airway resistance was evaluated according to the method of Konzett-Roessler [Naunyn-Schmiedberg's Arch. Exp. Path. Pharmak., Vol. 195, 71 (1940)]. Male Hartley guinea-pigs (about 400g wt.) were anesthetized with urethane (1.5g/kg, i.p.) and ventilated by an artificial respirator (Model 683; Harvard). At the same time, overflowed air volume above the pressure of about 12cm H2O was measured by using a sensor (Model 7020; Ugo Basile) and the value was used as an index of bronchoconstriction. 0.3 mg/kg (5 ml/kg) of test compounds suspended in 5% gum Arabic was administered orally to the guinea-pigs fasted beforehand for 24 hours. After 2 hours, U-46619 (4 µg/kg; Cayman) was administered through the cervical vein, and then maximal response was measured. Inhibitory rates compared to the control group were calculated based on the response rate normalized by the complete closure as 100%. […]

leukotriene D4 = target: T1, leukotriene D4 (Cavia porcellus, UniProt Q2NNR5); experiment: Leukotriene D4 antagonistic effect (isolated trachea, leukotriene D4 concentration-response curves, Schild); parameters: species or system male Hartley guinea-pigs; conditions: isolated guinea-pig trachea, contraction by leukotriene D4, test compound treatment 30 minutes, indomethacin 1 × 10^-6M, method of Schild
T1 construct: tracheas were isolated from male Hartley guinea-pigs, and spiral specimens of approximately 2 cm length were prepared; from tissue; host or cells: isolated guinea-pig trachea (spiral strips)
T1 sequence (Q2NNR5 1-340): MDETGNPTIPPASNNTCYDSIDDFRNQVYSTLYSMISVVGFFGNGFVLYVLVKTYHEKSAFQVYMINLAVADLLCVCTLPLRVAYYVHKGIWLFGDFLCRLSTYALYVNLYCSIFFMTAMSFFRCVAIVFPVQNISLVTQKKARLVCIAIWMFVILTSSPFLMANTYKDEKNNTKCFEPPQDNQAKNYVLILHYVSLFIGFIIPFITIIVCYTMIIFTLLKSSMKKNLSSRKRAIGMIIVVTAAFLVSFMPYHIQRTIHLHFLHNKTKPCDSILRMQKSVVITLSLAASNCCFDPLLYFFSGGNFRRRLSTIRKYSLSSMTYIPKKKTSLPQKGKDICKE
Protocol: According to an ordinary method, tracheas were isolated from male Hartley guinea-pigs, and spiral specimens of approximately 2 cm length were prepared. These specimens were suspended isotonically in organ baths that contained Krebs-Henseleit solution at 37°C under a resting tension of 0.5g. After contractions with acetylcholine (1 × 10^-5M; Ovisot for injection, Daiichi Seiyaku), and the first concentration-response curves were obtained by cumulative applications of 10^-10 to 10^-8M of leukotriene D4 (ULTRA FINE) in the organ baths. After treatments with test compounds at adequate concentrations for 30 minutes, the second concentration-response curves were obtained in the same manner as the first applications. pKB values were calculated using these two concentration-response curves according to the method of Schild [Pharmacological Review, Vol. 9, 242 (1957)]. Indomethacin (1 × 10^-6M, Sigma) was added beforehand to the organ bath to eliminate possible affections by thromboxane A2 and prostaglandin produced by stimulus of leukotriene D4 [Japan J. Pharmacol., Vol. 60, 227 (1992)]. […]

human liver microsomes = experiment: In vitro metabolism test; format: in vitro ADME; conditions: 0.4mg protein/ml human liver microsomes, 0.02 mM test compound, NADPH-generating system, 37°C for 30 minutes, HPLC
Protocol: 0.05 mM EDTA-0.1M phosphate buffer (pH 7.4), distilled water, 0.4mg protein/ml human liver microsomes and 0.02 mM test compound were mixed in a test tube under ice-cooling. After the mixture was shaken at 37°C for 2 minutes beforehand, the mixture was added with a ready-mix of NADPH-generating system and then shaken at 37°C for 30 minutes. After the incubation, the reaction was stopped by cooling with ice. The mixture was added with acetonitrile and well mixted, and then centrifuged at 3000 rpm for 10 minutes. The resulting supernatant was subjected to HPLC measurement, and the residual rate of test compound was calculated from the ratio of a peak area of an unchanged compound in the reaction sample in comparison with a non-reaction mixture. Preparations of reagents and reaction mixtures were carried out by referring to Shin Seikagaku Koza, Vol. 5: Biological oxidation and drug metabolism edited by The Japanese Biochemical Society. […]

[2] = tested on: bronchoconstriction induced by leukotriene D4; experiment: Inhibitory effect on bronchoconstriction induced by leukotriene D4 (Konzett-Roessler); format: in vivo, Male Hartley guinea-pigs; conditions: Cavia porcellus; oral administration 2 hours before leukotriene D4 (1 µg/kg, cervical vein), anesthetized guinea-pigs, indomethacin and propranolol pretreated
Protocol: Airway resistance was evaluated according to the method of Konzett-Roessler [Naunyn-Schmiedberg's Arch. Exp. Path. Pharmak., Vol. 195, 71 (1940)]. Male Hartley guinea-pigs fasted beforehand for 24 hours were anesthetized with urethane, and then overflowed air volume was measured under artificial ventilation as an index of bronchoconstriction. Various doses of test compounds suspended in 5% gum Arabic were administered orally, and after 2 hours, leukotriene D4 (1 µg/kg; ULTRA FINE) was administered through the cervical vein. Then, values at 2 minutes were measured when maximum responses were obtained. Inhibitory rates compared to the control group were calculated based on the response rate normalized by the overflowed volume at complete closure as 100% bronchoconstriction rate, and the 50% inhibitory doses (ED50 values) were calculated using dose-inhibitory rate curves. Indomethacin (2mg/kg, i.v.) and propranolol (1mg/kg, i.v.) were administered at 10 minutes and 5 minutes before the administration of leukotriene D4, respectively. […]

[3] = target: T2, thromboxane A2 / prostaglandin H2 receptor (Cavia porcellus, UniProt A0A286Y4I8); experiment: Thromboxane A2 antagonistic effect (isolated trachea, U-46619 concentration-response curves, Schild); parameters: species or system male Hartley guinea-pigs; conditions: isolated guinea-pig trachea, contraction by U-46619, test compound treatment 5 minutes, indomethacin 3 × 10^-6M, method of Schild
T2 construct: tracheas were isolated from male Hartley guinea-pigs, and spiral specimens of approximately 2 cm length were prepared; from tissue; host or cells: isolated guinea-pig trachea (spiral strips)
T2 sequence (A0A286Y4I8 1-347): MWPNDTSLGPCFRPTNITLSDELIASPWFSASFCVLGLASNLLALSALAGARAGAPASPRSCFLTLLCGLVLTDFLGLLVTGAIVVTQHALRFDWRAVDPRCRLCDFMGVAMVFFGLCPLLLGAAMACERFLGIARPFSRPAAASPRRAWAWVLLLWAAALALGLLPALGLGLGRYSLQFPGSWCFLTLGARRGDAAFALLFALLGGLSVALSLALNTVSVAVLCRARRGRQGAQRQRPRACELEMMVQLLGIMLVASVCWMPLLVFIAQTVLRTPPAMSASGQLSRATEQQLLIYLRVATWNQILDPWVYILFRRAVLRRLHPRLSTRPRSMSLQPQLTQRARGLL
Protocol: According to an ordinary method, tracheas were isolated from male Hartley guinea-pigs, and spiral specimens of approximately 2 cm length were prepared. These specimens were suspended in organ baths that contained Krebs-Henseleit solution at 37°C under a resting tension of 1.5 g, and the changes in isometric tension were recorded. The first concentration-response curves were obtained by cumulative applications of 1 × 10^-9 to 3 × 10^-7M of U-46619 (Cayman, thromboxane A2 / prostaglandin H2 receptor agonist) in the organ baths. After treatments with test compounds at adequate concentrations for 5 minutes, the second concentration-response curves were obtained in the same manner as the first applications. pKB values were calculated using these two concentration-response curves according to the method of Schild [Pharmacological Review, Vol. 9, 242 (1957)]. Indomethacin (3 × 10^-6M, Sigma) was added beforehand to the organ bath to eliminate possible affections by thromboxane A2 and prostaglandin produced endogenously [Japan J. Pharmacol., Vol. 60, 227 (1992)].

| Kb (leukotriene D4) [nM] | Residual rate (%) (human liver microsomes) | Kb [3] [nM] | SMILES | inhibition in vivo at 0.3 mg/kg [1] [%] | ED50 [2] [mg/kg] |
| --- | --- | --- | --- | --- | --- |
| 251 | 88 | 2.51 | O=C(O)CCCc1ccc(C(CCCC(F)(F)C(F)(F)F)NS(=O)(=O)c2ccc(F)cc2)cc1 (centres unmarked) [Example 189, 4-[4-[5,5,6,6,6-Pentafluoro-1-(4-fluorophenylsulfonylamino)hexyl]phenyl]butyric Acid] | 71 | 0.92 |
| 251 | 83 | 10 | O=C(O)CCCc1ccc(C(CCC(F)(F)C(F)(F)C(F)(F)F)NS(=O)(=O)c2ccc(F)cc2)cc1 (centres unmarked) [Example 200, 4-[4-[4,4,5,5,6,6,6-Heptafluoro-1-(4-fluorophenylsulfonylamino)hexyl]phenyl]butyric Acid] | 82 | 0.21 |
| 100 | 78 | 7.94 | O=C(O)CCCc1ccc(C(CCC(F)(F)C(F)(F)C(F)(F)C(F)(F)F)NS(=O)(=O)c2ccc(F)cc2)s1 (centres unmarked) [Example 179, 4-[5-[4,4,5,5,6,6,7,7,7-Nonafluoro-1-(4-fluorophenylsulfonylamino)heptyl]-2-thienyl]butyric Acid] | 93 | 0.17 |
| 251 | 72 | 0.398 | O=C(O)CCCc1ccc(C(CCCC(F)(F)C(F)(F)F)NS(=O)(=O)c2ccc(Cl)cc2)s1 (centres unmarked) [Example 162, 4-[5-[1-(4-Chlorophenylsulfonylamino)-5,5,6,6,6-pentafluorohexyl]-2-thienyl]butyric Acid] | 85 | 1.3 |
| 794 | 93 | 12.6 | O=C(O)CCCc1ccc(C(CCCC(F)(F)C(F)(F)C(F)(F)F)NS(=O)(=O)c2ccc(F)cc2)cc1 (centres unmarked) [Example 202, 4-[4-[5,5,6,6,7,7,7-Heptafluoro-1-(4-fluorophenylsulfonylamino)heptyl]phenyl]butyric Acid] | 85 | 0.97 |
| 200 | 74 | 0.794 | O=C(O)CCCc1ccc(C(CCCC(F)(F)C(F)(F)F)NS(=O)(=O)c2ccc(Cl)cc2)cc1 (centres unmarked) [Example 188, 4-[4-[1-(4-Chlorophenylsulfonylamino)-5,5,6,6,6-pentafluorohexyl]phenyl]butyric Acid] | 88 | 1.6 |
| 251 | 50 | 1.26 | CC(C)CCCC(NS(=O)(=O)c1ccc(Cl)cc1)c1ccc(CCCC(=O)O)cc1 (centres unmarked) [Reference compound 2, 4-[4-[1-(4-chlorophenylsulfonylamino)-5-methylhexyl]phenyl]butyric acid, reference compound] | 81 | 9.2 |
| 126 | 86 | 3.16 | O=C(O)CCCc1ccc(C(CCC(F)(F)C(F)(F)C(F)(F)F)NS(=O)(=O)c2ccc(F)cc2)s1 (centres unmarked) [Example 176, 4-[5-[4,4,5,5,6,6,6-Heptafluoro-1-(4-fluorophenylsulfonylamino)hexyl]-2-thienyl]butyric Acid] | 78 | 0.14 |
| 398 | 84 | 3.16 | O=C(O)CCCc1ccc(C(CCCC(F)(F)C(F)(F)C(F)(F)F)NS(=O)(=O)c2ccc(F)cc2)s1 (centres unmarked) [Example 178, 4-[5-[5,5,6,6,7,7,7-Heptafluoro-1-(4-fluorophenylsulfonylamino)heptyl]-2-thienyl]butyric Acid] | 89 | 0.67 |
| 398 | 87 | 6.31 | O=C(O)CCCc1ccc(C(CCCC(F)(F)C(F)(F)C(F)(F)F)NS(=O)(=O)c2ccc(Cl)cc2)s1 (centres unmarked) [Example 177, 4-[5-[1-(4-Chlorophenylsulfonylamino)-5,5,6,6,7,7,7-heptafluoroheptyl]-2-thienyl]butyric Acid] | 93 | 0.69 |
| 398 | 87 | 0.794 | O=C(O)CCCc1ccc(C(CCCC(F)(F)C(F)(F)F)NS(=O)(=O)c2ccc(F)cc2)s1 (centres unmarked) [Example 163, 4-[5-[5,5,6,6,6-Pentafluoro-1-(4-fluorophenylsulfonylamino)hexyl]-2-thienyl]butyric Acid] | 92 | 0.78 |
| 200 | 53 | 1 | CCCCCC(NS(=O)(=O)c1ccc(Cl)cc1)c1ccc(CCCC(=O)O)cc1 (centres unmarked) [Reference compound 1, 4-[4-[1-(4-Chlorophenylsulfonylamino)hexyl]phenyl]butyric acid, reference compound] | 85 | 8.1 |

| SMILES | Kb (leukotriene D4) [nM] | Residual rate (%) (human liver microsomes) | Kb [3] [nM] | inhibition in vivo at 0.3 mg/kg [1] [%] | ED50 [2] [mg/kg] |
| --- | --- | --- | --- | --- | --- |
| O=C(O)CCCc1ccc(C(CCCC(F)(C(F)(F)F)C(F)(F)F)NS(=O)(=O)c2ccc(F)cc2)s1 (centres unmarked) [Example 183, 4-[5-[5,6,6.6-Tetrafluoro-5-trifluoromethyl-1-(4-fluorophenylsulfonylamino)hexyl]-2-thienyl]butyric Acid] | 398 | 78 | 2 | 89 | 1.1 |
